From patent US10266537B2, “3-acetylenyl-pyrazole-pyrimidine derivative, and preparation method therefor and uses thereof” (Si Chuan University, priority 2015, dated 2019)

Legend:
Assay in all cases: Kinase inhibition assay (KinaseProfiler, 33P-ATP)
Type in all cases: biochemical
[1] = target: Flt4 (Homo sapiens (Human), UniProt P35916); settings: Flt4(h), read-out: The percentage of the remaining active protein
[2] = target: JAK1 (Homo sapiens (Human), UniProt P23458); settings: JAK1(h), read-out: The percentage of the remaining active protein
[3] = target: SAPK2a (Homo sapiens (Human), UniProt Q16539); settings: SAPK2a(h), read-out: The percentage of the remaining active protein
[4] = target: Abl(m) (Mus musculus (Mouse), UniProt P00520); settings: read-out: The percentage of the remaining active protein
[5] = target: ALK2(h) (Homo sapiens (Human), UniProt Q04771); settings: read-out: The percentage of the remaining active protein
[6] = target: CaMKK2(h) (Homo sapiens (Human), UniProt Q96RR4); settings: read-out: The percentage of the remaining active protein
[7] = target: CDK3/cyclinE(h) (Homo sapiens (Human), UniProt Q00526); settings: read-out: The percentage of the remaining active protein
[8] = target: CLK1(h) (Homo sapiens (Human), UniProt P49759); settings: read-out: The percentage of the remaining active protein
[9] = target: CLK4(h) (Homo sapiens (Human), UniProt Q9HAZ1); settings: read-out: The percentage of the remaining active protein
[10] = target: DAPK1(h) (Homo sapiens (Human), UniProt P53355); settings: read-out: The percentage of the remaining active protein
[11] = target: DYRK1A(h) (Homo sapiens (Human), UniProt Q13627); settings: read-out: The percentage of the remaining active protein
[12] = target: EGFR(L861Q)(h) (Homo sapiens (Human), UniProt P00533, L861Q); settings: read-out: The percentage of the remaining active protein
[13] = target: IGF-1R(h), activated (Homo sapiens (Human), UniProt P08069); settings: read-out: The percentage of the remaining active protein
[14] = target: LOK(h) (Homo sapiens (Human), UniProt O94804); settings: read-out: The percentage of the remaining active protein
[15] = target: LRRK2(h) (Homo sapiens (Human), UniProt Q5S007); settings: read-out: The percentage of the remaining active protein
[16] = target: MINK(h) (Homo sapiens (Human), UniProt Q8N4C8); settings: read-out: The percentage of the remaining active protein
[17] = target: MKK7β(h) (Homo sapiens (Human), UniProt O14733); settings: read-out: The percentage of the remaining active protein
[18] = target: MRCKα(h) (Homo sapiens (Human), UniProt Q5VT25); settings: read-out: The percentage of the remaining active protein
[19] = target: MSK1(h) (Homo sapiens (Human), UniProt O75582); settings: read-out: The percentage of the remaining active protein
[20] = target: MST4(h) (Homo sapiens (Human), UniProt Q9P289); settings: read-out: The percentage of the remaining active protein
[21] = target: ROCK-II(h) (Homo sapiens (Human), UniProt O75116); settings: read-out: The percentage of the remaining active protein
[22] = target: Ros(h) (Homo sapiens (Human), UniProt P08922); settings: read-out: The percentage of the remaining active protein
[23] = target: Rsk2(h) (Homo sapiens (Human), UniProt P51812); settings: read-out: The percentage of the remaining active protein
[24] = target: Tie2(Y897S)(h) (Homo sapiens (Human), UniProt Q02763, Y897S); settings: read-out: The percentage of the remaining active protein
[25] = target: PI3 Kinase (p110d/p85a)(h) (Homo sapiens (Human), UniProt O00329); settings: read-out: The percentage of the remaining active protein
[26] = target: PI3KC2g(h) (Homo sapiens (Human), UniProt O75747); settings: read-out: The percentage of the remaining active protein

CLK4(h), sequence (Q9HAZ1 whole entry): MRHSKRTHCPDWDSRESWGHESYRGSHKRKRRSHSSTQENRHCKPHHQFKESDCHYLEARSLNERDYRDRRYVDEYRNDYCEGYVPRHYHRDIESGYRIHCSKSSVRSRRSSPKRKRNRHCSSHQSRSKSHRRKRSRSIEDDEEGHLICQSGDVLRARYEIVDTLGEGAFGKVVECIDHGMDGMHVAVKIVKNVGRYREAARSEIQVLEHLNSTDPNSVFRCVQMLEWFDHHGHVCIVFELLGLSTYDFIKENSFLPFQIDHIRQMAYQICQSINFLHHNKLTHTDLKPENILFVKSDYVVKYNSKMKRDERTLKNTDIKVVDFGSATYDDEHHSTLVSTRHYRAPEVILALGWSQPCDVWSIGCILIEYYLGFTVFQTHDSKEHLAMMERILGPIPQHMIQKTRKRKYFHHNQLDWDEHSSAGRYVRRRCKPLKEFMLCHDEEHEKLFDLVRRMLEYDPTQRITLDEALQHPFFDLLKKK
Rsk2(h), sequence (P51812 whole entry): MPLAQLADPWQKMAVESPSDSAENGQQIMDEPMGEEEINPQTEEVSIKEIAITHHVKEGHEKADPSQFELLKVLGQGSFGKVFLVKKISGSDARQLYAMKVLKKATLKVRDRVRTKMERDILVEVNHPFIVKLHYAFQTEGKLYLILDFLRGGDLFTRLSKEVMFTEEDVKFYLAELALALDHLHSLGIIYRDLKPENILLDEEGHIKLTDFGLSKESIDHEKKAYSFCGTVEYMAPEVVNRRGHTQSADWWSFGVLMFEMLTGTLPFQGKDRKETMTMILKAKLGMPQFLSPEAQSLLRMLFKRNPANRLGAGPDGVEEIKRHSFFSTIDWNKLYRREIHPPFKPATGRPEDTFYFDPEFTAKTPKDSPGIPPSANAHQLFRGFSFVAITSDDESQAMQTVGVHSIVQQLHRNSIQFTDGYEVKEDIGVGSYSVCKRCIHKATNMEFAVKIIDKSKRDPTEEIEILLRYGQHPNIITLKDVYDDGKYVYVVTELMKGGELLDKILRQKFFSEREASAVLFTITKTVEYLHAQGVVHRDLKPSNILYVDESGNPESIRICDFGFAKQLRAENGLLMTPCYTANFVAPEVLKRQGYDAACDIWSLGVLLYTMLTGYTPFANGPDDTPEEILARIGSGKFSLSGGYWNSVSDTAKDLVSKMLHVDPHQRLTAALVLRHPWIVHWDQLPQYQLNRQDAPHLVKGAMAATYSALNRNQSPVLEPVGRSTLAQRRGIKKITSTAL
IGF-1R(h), activated, sequence (P08069 959-1367 limits assumed): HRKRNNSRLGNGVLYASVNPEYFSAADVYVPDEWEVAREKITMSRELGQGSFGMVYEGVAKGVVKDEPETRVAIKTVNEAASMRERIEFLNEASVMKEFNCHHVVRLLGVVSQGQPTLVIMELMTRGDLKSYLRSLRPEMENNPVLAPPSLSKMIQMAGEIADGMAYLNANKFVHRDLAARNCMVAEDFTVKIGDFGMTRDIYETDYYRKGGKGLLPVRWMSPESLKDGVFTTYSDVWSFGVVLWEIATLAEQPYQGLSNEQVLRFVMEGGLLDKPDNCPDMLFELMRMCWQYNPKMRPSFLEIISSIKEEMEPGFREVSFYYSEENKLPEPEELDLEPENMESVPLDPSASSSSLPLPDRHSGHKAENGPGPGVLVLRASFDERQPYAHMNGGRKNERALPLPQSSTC
EGFR(L861Q)(h), sequence (P00533 25-1210 L861Q): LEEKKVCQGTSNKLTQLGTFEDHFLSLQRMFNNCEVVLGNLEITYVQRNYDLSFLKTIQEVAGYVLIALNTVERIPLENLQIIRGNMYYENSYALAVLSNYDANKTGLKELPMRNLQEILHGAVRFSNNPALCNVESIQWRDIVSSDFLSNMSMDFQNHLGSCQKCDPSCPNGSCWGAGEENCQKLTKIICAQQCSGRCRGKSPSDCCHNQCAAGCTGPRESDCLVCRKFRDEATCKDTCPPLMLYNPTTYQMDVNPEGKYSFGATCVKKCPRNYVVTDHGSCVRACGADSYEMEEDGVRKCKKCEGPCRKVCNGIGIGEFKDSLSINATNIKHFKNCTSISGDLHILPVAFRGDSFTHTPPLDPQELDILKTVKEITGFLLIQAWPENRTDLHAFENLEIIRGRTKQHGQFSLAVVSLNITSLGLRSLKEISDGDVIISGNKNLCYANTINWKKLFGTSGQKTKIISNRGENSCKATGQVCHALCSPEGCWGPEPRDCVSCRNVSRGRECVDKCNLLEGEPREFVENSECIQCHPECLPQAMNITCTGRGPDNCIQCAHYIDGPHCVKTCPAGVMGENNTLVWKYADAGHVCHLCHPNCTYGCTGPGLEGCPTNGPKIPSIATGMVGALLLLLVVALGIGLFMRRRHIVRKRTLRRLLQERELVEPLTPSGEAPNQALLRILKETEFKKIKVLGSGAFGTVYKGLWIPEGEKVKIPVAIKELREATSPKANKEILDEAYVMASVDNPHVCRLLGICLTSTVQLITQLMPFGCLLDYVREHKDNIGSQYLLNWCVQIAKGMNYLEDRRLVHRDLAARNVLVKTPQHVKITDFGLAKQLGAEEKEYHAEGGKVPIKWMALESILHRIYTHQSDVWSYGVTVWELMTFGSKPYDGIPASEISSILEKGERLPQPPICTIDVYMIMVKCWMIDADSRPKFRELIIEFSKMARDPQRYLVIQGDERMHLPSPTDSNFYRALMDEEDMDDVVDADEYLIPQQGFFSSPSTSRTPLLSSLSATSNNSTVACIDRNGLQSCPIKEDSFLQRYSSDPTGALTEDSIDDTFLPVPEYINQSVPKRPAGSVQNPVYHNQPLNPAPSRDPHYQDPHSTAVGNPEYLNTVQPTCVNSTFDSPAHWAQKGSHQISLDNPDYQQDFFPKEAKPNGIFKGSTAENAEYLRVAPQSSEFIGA
JAK1, sequence (P23458 whole entry): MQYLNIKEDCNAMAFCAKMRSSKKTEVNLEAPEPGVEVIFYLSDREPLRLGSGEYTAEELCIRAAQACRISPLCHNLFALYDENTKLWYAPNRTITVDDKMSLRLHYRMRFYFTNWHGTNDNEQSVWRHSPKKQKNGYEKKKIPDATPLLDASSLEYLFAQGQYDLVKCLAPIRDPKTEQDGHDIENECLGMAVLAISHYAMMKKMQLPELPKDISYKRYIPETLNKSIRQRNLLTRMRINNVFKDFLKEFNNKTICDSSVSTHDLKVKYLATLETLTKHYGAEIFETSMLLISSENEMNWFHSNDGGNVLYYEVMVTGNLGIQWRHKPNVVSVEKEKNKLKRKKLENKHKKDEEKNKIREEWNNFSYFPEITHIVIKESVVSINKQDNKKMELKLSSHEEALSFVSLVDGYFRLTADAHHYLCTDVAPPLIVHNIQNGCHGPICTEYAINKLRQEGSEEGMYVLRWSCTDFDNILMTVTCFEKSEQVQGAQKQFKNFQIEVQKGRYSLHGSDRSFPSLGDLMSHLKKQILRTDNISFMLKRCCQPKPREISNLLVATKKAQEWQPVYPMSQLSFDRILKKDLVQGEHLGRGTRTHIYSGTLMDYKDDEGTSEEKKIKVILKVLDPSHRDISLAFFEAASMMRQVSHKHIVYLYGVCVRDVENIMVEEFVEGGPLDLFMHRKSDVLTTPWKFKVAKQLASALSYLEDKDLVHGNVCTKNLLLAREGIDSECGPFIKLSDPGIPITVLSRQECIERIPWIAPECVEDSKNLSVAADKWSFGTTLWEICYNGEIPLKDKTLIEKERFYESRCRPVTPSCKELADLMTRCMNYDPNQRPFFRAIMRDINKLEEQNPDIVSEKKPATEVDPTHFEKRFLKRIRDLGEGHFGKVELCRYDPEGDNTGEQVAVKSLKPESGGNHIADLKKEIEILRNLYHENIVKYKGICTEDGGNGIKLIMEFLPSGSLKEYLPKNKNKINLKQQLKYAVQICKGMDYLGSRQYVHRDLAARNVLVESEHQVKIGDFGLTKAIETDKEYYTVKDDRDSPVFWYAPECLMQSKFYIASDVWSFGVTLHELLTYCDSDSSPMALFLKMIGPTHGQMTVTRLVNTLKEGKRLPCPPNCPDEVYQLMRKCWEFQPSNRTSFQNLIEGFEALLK
LOK(h), sequence (O94804 whole entry): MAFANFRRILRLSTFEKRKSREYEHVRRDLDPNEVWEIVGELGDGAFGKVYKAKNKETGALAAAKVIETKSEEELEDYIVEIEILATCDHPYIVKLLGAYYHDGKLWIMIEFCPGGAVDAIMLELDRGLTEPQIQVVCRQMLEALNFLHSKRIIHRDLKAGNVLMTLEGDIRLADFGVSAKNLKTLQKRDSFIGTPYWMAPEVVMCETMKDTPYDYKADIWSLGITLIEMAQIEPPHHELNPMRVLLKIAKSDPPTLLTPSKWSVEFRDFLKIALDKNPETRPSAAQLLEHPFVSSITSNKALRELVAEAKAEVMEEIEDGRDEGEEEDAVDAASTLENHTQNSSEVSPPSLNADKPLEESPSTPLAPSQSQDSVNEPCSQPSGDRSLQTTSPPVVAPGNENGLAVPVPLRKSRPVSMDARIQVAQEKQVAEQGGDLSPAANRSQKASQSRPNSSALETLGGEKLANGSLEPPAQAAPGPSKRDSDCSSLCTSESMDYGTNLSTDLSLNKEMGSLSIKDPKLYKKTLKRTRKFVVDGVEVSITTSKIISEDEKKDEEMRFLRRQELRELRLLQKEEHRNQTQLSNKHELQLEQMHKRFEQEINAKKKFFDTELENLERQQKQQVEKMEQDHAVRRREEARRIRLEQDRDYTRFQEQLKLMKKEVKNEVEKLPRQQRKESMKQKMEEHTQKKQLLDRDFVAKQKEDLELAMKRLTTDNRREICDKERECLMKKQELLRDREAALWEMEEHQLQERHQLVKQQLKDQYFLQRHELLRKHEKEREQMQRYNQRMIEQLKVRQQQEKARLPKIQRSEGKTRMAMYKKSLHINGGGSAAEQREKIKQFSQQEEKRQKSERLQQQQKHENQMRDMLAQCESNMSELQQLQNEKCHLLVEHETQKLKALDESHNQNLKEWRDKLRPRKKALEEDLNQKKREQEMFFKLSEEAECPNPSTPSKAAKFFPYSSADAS

Cc1ccc(NC(=O)c2ccc(C)c(C(F)(F)F)c2)cc1C#Cc1nn([C@H]2CC[C@H](O)CC2)c2ncnc(N)c12 [Compound 93]
remaining activity at 10 µM [1]: 1%
remaining activity at 10 µM [2]: 3%
remaining activity at 10 µM [3]: 3%
remaining activity at 10 µM [4]: -2%
remaining activity at 10 µM [5]: 77%
remaining activity at 10 µM [6]: 55%
remaining activity at 10 µM [7]: 93%
remaining activity at 10 µM [8]: 64%
remaining activity at 10 µM [9]: 58%
remaining activity at 10 µM [10]: 97%
remaining activity at 10 µM [11]: 95%
remaining activity at 10 µM [12]: 0%
remaining activity at 10 µM [13]: 91%
remaining activity at 10 µM [14]: 16%
remaining activity at 10 µM [15]: 15%
remaining activity at 10 µM [16]: 25%
remaining activity at 10 µM [17]: 70%
remaining activity at 10 µM [18]: 101%
remaining activity at 10 µM [19]: 95%
remaining activity at 10 µM [20]: 73%
remaining activity at 10 µM [21]: 56%
remaining activity at 10 µM [22]: 82%
remaining activity at 10 µM [23]: 44%
remaining activity at 10 µM [24]: 0%
remaining activity at 10 µM [25]: 74%
remaining activity at 10 µM [26]: 98%
